# Data from patent US20210236476A1, “METHODS OF TREATING CANCER WITH SMALL MOLECULE PD-L1 INHIBITORS” (CHEMOCENTRYX, INC., priority 2018, published 2021).
# Molecular target: T1, human PD-L1 / human PD-1 interaction (Homo sapiens, UniProt Q9NZQ7)
# T1 construct: purchased R&D (PD-L1); ACRO Biosystems (PD-1, biotin)
# Assay: ELISA of PD-1/PD-L1 interaction
# Type: binding
# Summary of the method: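 Plates coated with 1 μg/mL human PD-L1 and blocked with BSA; serially diluted (1:5) compounds plus biotinylated human PD-1 (0.3 μg/mL) incubated 1 h at 37° C. Bound PD-1 detected with streptavidin-HRP/TMB, absorbance at 450 nm.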
# T1 sequence (Q9NZQ7 19-239 limits assumed): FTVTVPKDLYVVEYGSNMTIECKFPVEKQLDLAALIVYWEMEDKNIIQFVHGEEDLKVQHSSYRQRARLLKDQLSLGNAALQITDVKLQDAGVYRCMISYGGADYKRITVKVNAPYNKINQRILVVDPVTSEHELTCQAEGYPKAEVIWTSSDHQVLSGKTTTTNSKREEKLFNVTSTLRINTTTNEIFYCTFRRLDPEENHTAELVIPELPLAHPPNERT
row,IC50 [nM],Structure (SMILES)
1,< 5,C[C@@](CO)(NCc1cc(Cl)c(O[C@H]2CCc3c(-c4cccc(OCCCN5CCC5)c4Cl)cccc32)cc1OCc1cncc(C#N)c1)C(=O)O
2,< 5,N#Cc1cncc(COc2cc(O[C@H]3CCc4c(-c5cccc(OCCCN6CC7(CC(F)C7)C6)c5Cl)cccc43)c(Cl)cc2CNC[C@H]2CCC(=O)N2)c1
3,< 5,N#Cc1cncc(COc2cc(O[C@H]3CCc4c(-c5cccc(OCCCN6CC(O)C6)c5Cl)cccc43)c(Cl)cc2CN2CCC(O)CC2)c1
4,< 5,Cc1c(OCCCN2CCC(F)CC2)cccc1-c1cccc2c1CC[C@@H]2Oc1cc(OCc2cc(C#N)cc(C#N)c2)c(CN[C@H]2CCC[C@@H]2O)cc1Cl
5,< 5,N#Cc1cncc(COc2cc(O[C@H]3CCc4c(-c5cccc(OCCCN6CC7(CC(O)C7)C6)c5Cl)cccc43)c(Cl)cc2CNC[C@H]2CCC(=O)N2)c1
6,< 5,N#Cc1cncc(COc2cc(O[C@H]3CCc4c(-c5cccc(OCCCN6CCC(F)CC6)c5Cl)cccc43)c(Cl)cc2CN[C@@H]2CCC[C@H]2O)c1
7,< 5,N#Cc1cncc(COc2cc(O[C@H]3CCc4c(-c5cccc(OCCCN6CC7(C6)CC(F)(F)C7)c5Cl)cccc43)c(Cl)cc2CN[C@@H]2CCCC[C@@H]2O)c1
8,< 5,N#Cc1cncc(COc2cc(O[C@H]3CCc4c(-c5cccc(OCCCN6CCC(F)CC6)c5Cl)cccc43)c(Cl)cc2CNCC2CNC(=O)C2)c1 (some centres unmarked)
9,< 5,N#Cc1cncc(COc2cc(O[C@H]3CCc4c(-c5cccc(OCCCN6CCC(F)CC6)c5Cl)cccc43)c(Cl)cc2CN[C@H]2CCOC[C@@H]2O)c1 [drawing 235]
10,< 5,C[C@@H](O)[C@H](NCc1cc(Cl)c(O[C@H]2CCc3c(-c4cccc(OCCCN5CCCCC5)c4Cl)cccc32)cc1OCc1cncc(C#N)c1)C(=O)NS(C)(=O)=O
11,< 5,N#Cc1cncc(COc2cc(O[C@H]3CCc4c(-c5cccc(OCCCN6CC7(CC(F)C7)C6)c5Cl)cccc43)c(Cl)cc2CN[C@H]2CC[C@@H]2O)c1
12,< 5,N#Cc1cncc(COc2cc(O[C@H]3CCc4c(-c5cccc(OCCCN6CCC(O)CC6)c5Cl)cccc43)c(Cl)cc2CN[C@@H](CO)C(=O)O)c1
13,< 5,N#Cc1cncc(COc2cc(O[C@H]3CCc4c(-c5cccc(OCCCN6CCC(F)CC6)c5Cl)cccc43)c(Cl)cc2CN[C@H]2CCOC[C@H]2O)c1
14,< 5,N#Cc1cncc(COc2cc(O[C@H]3CCc4c(-c5cccc(OCCCN6CCC(F)CC6)c5Cl)cccc43)c(Cl)cc2CN2CC[C@@H](O)C2)c1
15,< 5,N#Cc1cncc(COc2cc(O[C@H]3CCc4c(-c5cccc(OCCCN6CCC6)c5Cl)cccc43)c(Cl)cc2CN[C@@H]2CCCC[C@@H]2O)c1
16,< 5,N#Cc1cncc(COc2cc(O[C@H]3CCc4c(-c5cccc(OCCCN6CCC(O)CC6)c5Cl)cccc43)c(Cl)cc2CNCC2CCC(=O)N2)c1 (some centres unmarked)

row,IC50 [nM],Structure (SMILES)
1,< 5,N#Cc1cncc(COc2cc(O[C@H]3CCc4c(-c5cccc(OCCCN6CCC(F)CC6)c5Cl)cccc43)c(Cl)cc2CN[C@H]2CCC[C@H]2O)c1
2,< 5,Cc1c(OCCCN2CCC(O)CC2)cccc1-c1cccc2c1CC[C@@H]2Oc1cc(OCc2cncc(C#N)c2)c(CNCC2CCC(=O)N2)cc1Cl (some centres unmarked)
3,< 5,CC1(F)CCN(CCCOc2cccc(-c3cccc4c3CC[C@@H]4Oc3cc(OCc4cncc(C#N)c4)c(CN[C@@H]4CCCC[C@@H]4O)cc3Cl)c2Cl)CC1
4,< 5,Cc1c(OCCCN2CCC(O)CC2)cccc1-c1cccc2c1CCC2Oc1cc(OCc2cc(C#N)cc(C#N)c2)c(CN[C@@H]2CCCC[C@@H]2O)cc1Cl (some centres unmarked)
5,< 5,CC(CO)(NCc1cc(Cl)c(O[C@H]2CCc3c(-c4cccc(OCCCN5CCOCC5)c4Cl)cccc32)cc1OCc1cncc(C#N)c1)C(=O)O (some centres unmarked)
6,< 5,N#Cc1cncc(COc2cc(O[C@H]3CCc4c(-c5cccc(OCCCN6CC[C@@H](F)C6)c5Cl)cccc43)c(Cl)cc2CN[C@@H]2CCCC[C@@H]2O)c1
7,< 5,Cc1c(OCCCN2CCC(O)CC2)cccc1-c1cccc2c1CC[C@@H]2Oc1cc(OCc2cncc(C#N)c2)c(CN2CC[C@H](O)C2)cc1Cl
8,< 5,CC1(O)CCN(Cc2cc(Cl)c(O[C@H]3CCc4c(-c5cccc(OCCCN6CCC(F)CC6)c5Cl)cccc43)cc2OCc2cncc(C#N)c2)CC1
9,< 5,N#Cc1cncc(COc2cc(O[C@H]3CCc4c(-c5cccc(OCCCN6CC(O)C6)c5Cl)cccc43)c(Cl)cc2CNCC(=O)O)c1
10,< 5,Cc1c(OCCCN2CCC(F)CC2)cccc1-c1cccc2c1CC[C@@H]2Oc1cc(OCc2cc(C#N)cc(C#N)c2)c(CN[C@@H]2CCC[C@H]2O)cc1Cl
11,< 5,C[C@@](CO)(NCc1cc(Cl)c(O[C@H]2CCc3c(-c4cccc(OCCCN5CCC(O)CC5)c4Cl)cccc32)cc1OCc1cncc(C#N)c1)C(=O)O
12,< 5,Cc1c(OCCCN2CCC(O)CC2)cccc1-c1cccc2c1CC[C@@H]2Oc1cc(OCc2cncc(C#N)c2)c(CN[C@@H]2CCCC[C@@H]2O)cc1Cl
13,< 5,Cc1c(OCCCN2CCC(F)CC2)cccc1-c1cccc2c1CC[C@@H]2Oc1cc(OCc2cncc(C#N)c2)c(CNCCS(=O)(=O)O)cc1Cl
14,< 5,N#Cc1cncc(COc2cc(O[C@H]3CCc4c(-c5cccc(OCCCN6CCC(F)CC6)c5Cl)cccc43)c(Cl)cc2CN[C@@H]2CCC[C@@H]2O)c1
15,< 5,N#Cc1cncc(COc2cc(O[C@H]3CCc4c(-c5cccc(OCCCN6CCC(O)CC6)c5Cl)cccc43)c(Cl)cc2CN[C@@H]2CCCC[C@@H]2O)c1
16,< 5,Cc1c(OCCCN2CCC(F)CC2)cccc1-c1cccc2c1CC[C@@H]2Oc1cc(OCc2cc(C#N)cc(C#N)c2)c(CN[C@@H]2CCC[C@@H]2O)cc1Cl

# Second part, the molecule before the results:
row,Structure (SMILES),IC50 [nM]
1,C[C@@](CO)(NCc1cc(Cl)c(O[C@@H]2c3cccc(-c4cccc(OCCCN5CC(O)C5)c4Cl)c3C[C@@H]2F)cc1OCc1cncc(C#N)c1)C(=O)O,< 5
2,Cc1c(OCCCN2CCC2(C)C)cccc1-c1cccc2c1CC[C@@H]2Oc1cc(OCc2cc(C#N)cc(C#N)c2)c(CN[C@H]2CCC(=O)NC2)cc1Cl,< 5
3,Cc1c(OCCCN2CC(O)C2)cccc1-c1cccc2c1CC[C@@H]2Oc1cc(OCc2cncc(C#N)c2)c(CN[C@H](C(=O)O)[C@@H](C)O)cc1Cl,< 5
4,CCOc1cc(O[C@H]2CCc3c(-c4cccc(OCCCN5CC[C@@H](O)C5)c4C)cccc32)c(Cl)cc1CN[C@@H](CO)C(=O)O,< 5
5,Cc1c(OCCCN2CCC(O)CC2)cccc1-c1cccc2c1CC[C@@H]2Oc1cc(OCc2cc(C#N)cc(C#N)c2)c(CN[C@H](C(=O)O)[C@@H](C)O)cc1Cl,< 5
6,Cc1c(OCCCN2CCC(O)CC2)cccc1-c1cccc2c1CCC2Oc1cc(OCc2cncc(C#N)c2)c(CN[C@H](C(=O)O)[C@@H](C)O)cc1Cl (some centres unmarked),< 5
7,CCN1CCC(COc2cccc(-c3cccc4c3CC[C@@H]4Oc3cc(OCc4cncc(C#N)c4)c(CNC[C@@H]4CCC(=O)N4)cc3Cl)c2Cl)C1 (some centres unmarked),< 5
8,Cc1c(OCCCN2[C@H](C)CCC[C@@H]2C)cccc1-c1cccc2c1CC[C@@H]2Oc1cc(OCc2cc(C#N)cc(C#N)c2)c(CN[C@H]2CCC(=O)NC2)cc1Cl,5 to 500
9,Cc1c(OCCCN2CCC(F)CC2)cccc1-c1cccc2c1CC[C@@H]2Oc1cc(OCc2cncc(C(N)=O)c2)c(CN(C)CCC(=O)O)cc1Cl,< 5
10,CC(C)N1CCC(COc2cccc(-c3cccc4c3CC[C@@H]4Oc3cc(OCc4cncc(C#N)c4)c(CNC[C@@H]4CCC(=O)N4)cc3Cl)c2Cl)C1 (some centres unmarked),< 5
11,CCOc1cc(O[C@H]2CCc3c(-c4cccc(OCCCN5[C@H](C)CC[C@H]5C)c4C)cccc32)c(Cl)cc1CN1CCCC[C@H]1C(=O)O,5 to 500
12,Cc1c(OCCCN2CC3(CC(F)C3)C2)cccc1-c1cccc2c1CC[C@@H]2Oc1cc(OCc2cc(C#N)cc(C#N)c2)c(CN[C@H]2CCC(=O)NC2)cc1Cl,< 5
13,Cc1c(OCCCN2CCC(C)CC2)cccc1-c1cccc2c1CC[C@@H]2Oc1cc(OCc2cc(C#N)cc(C#N)c2)c(CN[C@H]2CCC(=O)NC2)cc1Cl,5 to 500
14,Cc1c(OCCCN2CCC(O)CC2)cccc1-c1cccc2c1CC[C@@H]2Oc1cc(OCc2cncc(C#N)c2)c(CNCc2cn(C)cn2)cc1Cl,< 5
15,COC(=O)C1(O)CCN(CCCOc2cccc(-c3cccc4c3CC[C@@H]4Oc3cc(OCc4cncc(C#N)c4)c(CN[C@H](C(=O)O)[C@@H](C)O)cc3Cl)c2C)C1 (some centres unmarked),< 5
16,Cc1c(OCCCN2CCC(O)CC2)cccc1-c1cccc2c1C[C@H](F)[C@@H]2Oc1cc(OCc2cncc(C#N)c2)c(CN[C@@](C)(CO)C(=O)O)cc1Cl,< 5
17,Cc1c(OCCCN2CCC(O)CC2)cccc1-c1cccc2c1CC[C@@H]2Oc1cc(OCc2cncc(C#N)c2)c(CN[C@H](C(=O)O)[C@@H](C)O)cc1Cl,< 5
18,Cc1c(OCCCN2CC(C)(C)C2)cccc1-c1cccc2c1CC[C@@H]2Oc1cc(OCc2cc(C#N)cc(C#N)c2)c(CN[C@H]2CCC(=O)NC2)cc1Cl,< 5
19,CCOc1cc(O[C@H]2CCc3c(-c4cccc(OCCCN5CC[C@@H](O)C5)c4C)cccc32)c(Cl)cc1CNC(C)(CO)C(=O)O (some centres unmarked),< 5
20,Cc1c(OCCCN2[C@H](C)CC[C@@H]2C)cccc1-c1cccc2c1CC[C@@H]2Oc1cc(OCc2cc(C#N)cc(C#N)c2)c(CN[C@H]2CCC(=O)NC2)cc1Cl,< 5
21,Cc1c(OCCCN2CCC(F)CC2)cccc1-c1cccc2c1CC[C@@H]2Oc1cc(OCc2cc(C#N)cc(C#N)c2)c(CN[C@H]2CCOC[C@H]2O)cc1Cl,< 5
22,Cc1c(OCCCN2CCC(F)CC2)cccc1-c1cccc2c1CC[C@@H]2Oc1cc(OCc2cc(C#N)cc(C#N)c2)c(CN[C@@H]2CCOC[C@H]2O)cc1Cl,< 5
23,Cc1c(OCCCN2CCCC[C@@H]2C)cccc1-c1cccc2c1CC[C@@H]2Oc1cc(OCc2cc(C#N)cc(C#N)c2)c(CN[C@H]2CCC(=O)NC2)cc1Cl,< 5
24,Cc1c(OCCCN2CCC(F)CC2)cccc1-c1cccc2c1CC[C@@H]2Oc1cc(OCc2cc(C#N)cc(C#N)c2)c(CNC[C@@H]2CCC(=O)N2)cc1Cl,< 5
25,Cc1c(OCCCN2CCC(O)CC2)cccc1-c1cccc2c1CCC2Oc1cc(OCc2cc(C#N)cc(C#N)c2)c(CN[C@@H](CO)C(=O)O)cc1Cl (some centres unmarked),< 5
26,CCOc1cc(O[C@H]2CCc3c(-c4cccc(OCCCN5CC[C@@H](O)C5)c4C)cccc32)c(Cl)cc1CN[C@H](C(=O)O)[C@@H](C)O,< 5
27,Cc1c(OCCCN2CC3(CCC3)C2)cccc1-c1cccc2c1CC[C@@H]2Oc1cc(OCc2cc(C#N)cc(C#N)c2)c(CNC[C@@H]2CCC(=O)N2)cc1Cl,< 5
